Values joined by “and” are separate entries in the source; they are usually repeats but may differ in a detail not shown here. Identical values can stand only once. Like-named read-outs stand apart in the source and are kept apart here.
Assays:
C. elegans = experiment: Nile red (NR) staining of stored body lipids in vivoChip; format: in vivo; settings: co-cultured for the entire 72 hours, versus control worms
Method: Liquid culture of C. elegans: Worms are synchronized by bleaching a population of gravid C. elegans using the hypochlorite solution. The embryos are then incubated in a glass tube and rotated for 24 hours at 20° C. About 80 larval 1 (L1) worms are plated into a standard 24-well plastic plate with 500 μl S media and HB101 bacteria. The worms are exposed to chemicals or ingredients during the growth in the liquid media for 3 days in a 20° C. incubator.
Imaging of C. elegans using vivoChip: The C. elegans are fed with bacteria and treated with test chemicals for 72 hours in a 20° C. incubator. […] The vivoChip technology allows capture of bright field or fluorescence images from the worms immobilized inside the microfluidic channels.
Nile red (NR) staining to study body lipids: To stain lipid molecules in the C. elegans body, 30 ng/ml and 50 ng/mL were added to the liquid culture at the L1 stage (a total of 72-hour incubation) and L4 stage animals (a total of 24-hour incubation) and maintained the plate at 20° C. […] Bright-field and fluorescence (red filter set) were acquired to capture worm development and the stored lipids in the C. elegans populations.
Analysis of NR signal: The individual channels were analyzed to identify the NR signal, mainly within the worm intestinal […] (FIG. 23A). […]

wild-type N2 worms = experiment: Pilot DART imaging of N2 worms treated with FUdR in a small-scale vivoChip; format: in vivo, C. elegans; settings: for EC50: Caenorhabditis elegans, N2 L1 larvae, 0-10,000 μM, 72 hrs at 20° C., D1 adults
Method: (§1) Strains and maintenance: The study used the N2 wild type (The Caenorhabditis Natural Diversity Resource, CaeNDR) for all experiments except for the initial vivoChip-2× pilot study, where the study used N2 wild types from the Caenorhabditis Genetics Center (CGC). C. elegans were maintained using the standard methods on nematode growth media (NGM) plates seeded with HB101 Escherichia coli bacteria and maintained at 20° C.. Frozen stocks of strains were also maintained at −80° C. and thawed each year to generate a new set of Dauer plates. Sealed Dauer plates for each strain were stored at 16° C. and used to start a fresh maintenance culture every 3 months by chunking to avoid genetic drift. Worms were cultured for >5 generations before using them for assays in a temperature and humidity-controlled environment.
(§2) Worm synchronization and large-scale culture: To prepare large numbers of synchronized L1 stage larvae, P0 larval 4 (L4) worms were transferred to NGM plates and grown for 96 hrs till the F1 generation reached maturity, removing the P0 adults after 48 hrs. D1 animals were treated with an alkaline sodium hypochlorite solution with periods of slow and high-speed shaking on a speed-controllable vortex to fragment their bodies and release the embryos before the bleaching solution was neutralized with 5 washes of M9. The eggs were allowed to develop and hatch in the M9 buffer in a rotating glass conical tube for 24 hrs. Hatched synchronized L1s were filtered through a 20 μm cell filter to remove unhatched eggs and debris, counted the number of total larvae, and adjusted the volume to make a final suspension of L1 larvae at a density of ~100 L1s/20 μl.
(§3) Chemical treatment in liquid culture: The age-synchronized L1 suspension (~100 larvae in 20 μl volumes) was placed in a standard 24-well plate with 480 μl HB101 (OD600^=3.0) suspension in S media. 2.5 μl of chemicals dissolved in H2O, or 1 μL of the chemicals in DMSO were added to the designated wells, keeping solvent concentration constant across all wells. Vehicle control wells received the same volume of each solvent (H2O or 0.2% DMSO). […]
For the initial testing of this hypothesis, this study explored the response of wild-type N2 worms when treated various doses of 5-Fluoro-2′-deoxyuridine (FUdR), a drug commonly used to prevent the development of live offspring in C. elegans experimental cultures. […] The length of all worms in each concentration were manually measured by taking the distance from the head to the tail of each animal. The study counted the total number of embryos and the number of embryos visibly moving within the eggshells in each worm through the time stacks (FIGS. 1C-1E).

CL2166 strain = settings: CL2166, 5.66 μl of 3% H2O2 in 500 μl culture at 68 hours, 4 hours exposure
Method: Image analysis of the C. elegans body and fluorescence signal: The images from the vivoChip platform were cropped into individual channels. The study determined the best focal plane for each worm image (bright-field images) from the stack of images. Individual channel image was analyzed using machine-learning algorithms (developed by vivoVerse) to predict the mask for the worm body inside the individual microfluidic channel. Since several organs in the worm body have a 3D architecture, the study created a maximum-intensity projection of multiple z-slice fluorescence images. Using the maximum projection image, the study then calculated the integrated fluorescence signal within the predicted body mask. The study also estimated the background signal from the pixels outside the body mask and within two successive channel regions. The background signal was used to estimate the corrected total C. elegans fluorescence (CTCF)=integrated density−(area of selected C. elegans body×fluorescence of background readings)
The study treated a transgenic strain expressing GFP when exposed to oxidative stress to quantify the stress level in individual worms using high-resolution imaging to quantify sub-lethal changes in the stress levels.
5.66 μl of 3% H2O2 was added to the 500 μl S media culture with worms at 68 hours to induce oxidative stress. […]

C. elegans pharynx = experiment: Pharynx size analysis from bright field images in vivoChip; format: in vivo; settings: D1 adults, 1.6 μM, DMSO (0.25%), treated from L1 stage
From the text: FIGS. 25A-25C depict identifying C. elegans organs and organ structures using high-resolution, bright field, and fluorescence images using the vivoChip platform. […] The schematic represents different organs that could be identified and analyzed using image processing or automated machine learning algorithms.
Identifying internal organs and organ structures of C. elegans using bright field and fluorescence images: Overall morphology of changes in different tissues within a C. elegans body. Due to the dynamic nature of the tissue architectures, it is expected to change over the animal's age. This approach was used to track tissue architecture during early adult stage C. elegans quantitatively (FIG. 25A). As an example, the study analyzed the pharynx within the C. elegans immobilized inside the vivoChip. […] This well-studied organ has been used to screen several therapeutic drugs and to characterize the amount of food intake readouts. […]
C. elegans pharynxes present in the best focal plane from individual channels were manually segmented. […] Once the C. elegans body is detected, specific organs can be characterized using the fluorescence reporter (transgenic strains) or fluorescent dyes (feeding or soaking with dye). For example, C. elegans were fed with FITC-dextran overnight to visualize the green signal using fluorescence imaging of device-immobilized animals. […]

C. elegans N2 wild type = experiment: vivoChip-24x C. elegans DART assay (72 hr liquid culture from L1, 4D imaging of D1 adults); format: in vivo
Method: as §1
Food preparation: HB101 was streaked on a Luria-Bertani (LB) agar plate with streptomycin (antibiotic) and incubated overnight at 37° C. to generate single colonies. One colony was picked and used to inoculate an overnight 5 mL starter culture in LB broth and antibiotic. 200 μl of this starter culture was added to 200 mL LB broth/streptomycin in a 1000 mL baffled flask and incubated for 18 h with 180 rotations per min (rpm) shaking to reach the end of the log growth phase. OD600 was measured using an Implen DiluPhotometer, and the culture was stored at 4° C. Immediately before worm culture, a sufficient volume of the bacterial culture was centrifuged to generate the required volume of OD600^=3.0 food suspension. The LB supernatant was removed and the pellet was resuspended in S media. This density was optimal for growing 80-100 larval 1 (L1) to the day 1 (D1) adult stage in a 500 μl culture volume with food remaining after 72 hrs, but not so much residual food particles as to interfere with imaging or chip operation.
Chemicals: Methylmercury (II) hydroxide (CH3Hg, Alfa Aesar, CAS #1184-57-2) and 5-Fluoro-2′-deoxyuridinc (FUdR, TCI Chemical, CAS #50-91-9) were dissolved in ultrapure water as master stocks at 200× highest treatment concentration. Propiconazole (Sigma Aldrich, CAS #60207-90-1) was dissolved in dimethylsulfoxide (Sigma Aldrich, CAS #67-68-5) as master stocks at 500× highest treatment concentration. The master stocks were transferred into 0.2 ml tubes as single-use aliquots and kept at −80° C. until needed. The 1 μM dose of CH3Hg was prepared by diluting the stock in ultrapure water prior to the treatment. For the dose-response assays, propiconazole was diluted immediately prior to treatment by serial dilution in DMSO to 500× working dilutions as needed, so that the final DMSO concentration in each well would be 0.2%. DMSO was also added to both the solvent control wells and the CH3Hg control wells to 0.2%.
as §2
as §3, with “wells.” for “wells. Vehicle control wells received the same volume of each solvent (H2O or 0.2% DMSO).”

Daphnia = settings: cited from earlier work
Fathead minnow = settings: cited from earlier work

NCCc1c[nH]c2ccc(O)cc12 [5-HT, serotonin]
amount of lipids in the body visualized using NR staining (C. elegans): significantly lower amount of lipids

O=c1[nH]c(=O)n([C@H]2C[C@H](O)[C@@H](CO)O2)cc1F [FUdR, 5-Fluoro-2′-deoxyuridine]
EC50 (wild-type N2 worms; read-out: moving embryo parameter, EC50): 26 µM | EC50 (wild-type N2 worms; read-out: reduction in body length, EC50): 316 µM | EC50 (wild-type N2 worms; read-out: reduction in the number of total embryos, EC50): 98 µM | concentration causing growth arrest at stages earlier than could be immobilized in the chip (wild-type N2 worms; N2 C. elegans, 0-10000 μM): ≥ 500 µM

OO [H2O2, hydrogen peroxide]
increase of GFP intensity (CL2166 strain): ~ 60%

CCOP(=S)(OCC)Oc1nc(Cl)c(Cl)cc1Cl [chlorpyrifos]
total pixels of pharynx compared to vehicle control (DMSO) (C. elegans pharynx): reduced

CCCC1COC(Cn2cncn2)(c2ccc(Cl)cc2Cl)O1 (stereo not drawn) [propiconazole]
concentration at which reduced growth rate left worms too small to be immobilized in the microfluidic channels (C. elegans N2 wild type; N2, 72 hrs): ≥ 333 UM | body length EC10 (C. elegans N2 wild type; N2, L1 to D1, 72 hrs, Hill fit): 117.5 µM | body volume EC10 (C. elegans N2 wild type; N2, L1 to D1, 72 hrs, Hill fit): 74.9 µM | developed (moving+folded) embryos EC10 (C. elegans N2 wild type; N2, L1 to D1, 72 hrs, Hill fit): 10.9 µM | moving embryos EC10 (C. elegans N2 wild type; N2, L1 to D1, 72 hrs, Hill fit): 10 µM | total embryos EC10 (C. elegans N2 wild type; N2, L1 to D1, 72 hrs, Hill fit): 48.8 µM | concentration from which embryonic development was affected (Daphnia): ≥ 0.5 mg/L and ≥ 1.46 μM | concentration from which fecundity was affected (Fathead minnow): ≥ 0.5 mg/L and ≥ 1.46 μM
